Measurements reported in patent publication US20240077498A1, “METHOD OF DIAGNOSING AND TREATING NONALCOHOLIC FATTY LIVER DISEASE AND NONALCOHOLIC STEATOHEPATITIS” (Board of Supervisors of Louisiana State University and …, priority 2020, published 2024).
“Also recorded” adds a separate entry of the source.

What was measured:
HepG2 cells = assay: Palmitic acid lipotoxicity in HepG2 cells (MTT, lactate dehydrogenase, AnV cytometry, cleaved caspase 3 p17 western blot); assay type: cell-based, human; conditions: PA 24 h
SLAMF1 = SLAMF1 expression in PA treated HepG2 cells (immunocytochemistry, Western blot, q-PCR, conditioned medium); assay type: cell-based, human; conditions: for SLAMF1 mRNA (q-PCR) / SLAMF1 protein (immunocytochemistry, Western blot): HepG2 cells, PA 24 h
Excerpt: FIGS. 7A-7C show SLAMF1 increases in PA treated HepG2 cells.
Non-alcoholic fatty liver disease (NAFLD) is one of the most common forms of chronic liver disease. NAFLD's initial phase involves hepatic steatosis (triglyceride accumulation in hepatocytes). NAFLD can rapidly progress to non-alcoholic steatohepatitis (NASH). NASH is characterized by increased oxidative stress, lipid peroxidation, inflammation, mitochondria dysfunction, and hepatocyte death and fibrosis. If untreated, NASH leads to cirrhosis, and in some cases, hepatocellular carcinoma. […] Therefore, it is critical to understand the mechanisms responsible for NAFLD progression to NASH to develop efficient therapies and find disease progression biomarkers. Signaling lymphocytic activation molecule 1 (SLAMF1) protein is a self-ligand receptor involved in regulating the immune response to viruses and cancer. In the present disclosure, the inventors discovered that hepatocytes from NASH liver samples from humans and mice express high levels of SLAMF1. To confirm these findings, the inventors used palmitic acid-treated HepG2 hepatocytes as an “in vitro” model of NASH. […] Based on the inventors' experimental results, SLAMF1 may be used as both a therapeutic and a diagnostic target (including soluble form) for NAFLD and NASH.
Referring to FIGS. 6A-8E, the involvement of SLAMF1 in the progression of NASH was explored in human hepatocarcinoma cells HepG2.

SLAMF 1 = assay: Palmitic acid treatment of human hepatocytes in culture, SLAMF1 protein by western blot and immunofluorescence; assay type: cell-based; conditions: for SLAMF1 level normalized to Tubulin, relative to control: western blot, n=3; for SLAMF 1 protein levels by immunofluorescence staining: palmitic acid vs vehicle
Description: Hepatocytes were treated with two different doses of palmitic acid (0.4 and 0.8 mM). […] The 0.4 mM dose has a SLAMF1 level of 2.3 times the control level. The 0.8 mM dose has a SLAMF1 level of 5.8 times the control level. […] Representative immunofluorescence staining of hepatocytes treated with vehicle (left panel) or palmitic acid (right panel). Caveolin antibody (red, to label the membrane of the cells), SLAMF 1 antibody (green) and the nuclear marker DAPI (blue). Protein levels of SLAMF 1 are elevated in response to palmitic acid (right panel). The data represents n=4 samples per group. All samples were a courtesy of Pathology Department. All pictures were acquired on a Leica TCS SP5 Spectral Confocal Microscope equipped with a ×40 (oil) objective.

CCCCCCCCCCCCCCCC(=O)O [palmitic acid]
apoptosis (AnV by cytometry, cleaved caspase 3 p17 by western blot) (HepG2 cells): induced apoptosis | cell viability (MTT) (HepG2 cells): reduces cell viability | cytotoxicity (Lactate dehydrogenase activity in conditioned medium) (HepG2 cells): increases cytotoxicity | SLAMF1 mRNA (q-PCR) (SLAMF1): significant increases | SLAMF1 protein (immunocytochemistry, Western blot) (SLAMF1): significant increases | SLAMF1 mRNA (q-PCR) (SLAMF1; listed as PA): increases | SLAMF1 protein (immunocytochemistry, Western blot) (SLAMF1; listed as PA): increases SLAMF1 protein | SLAMF1 in culture/conditioned medium (SLAMF1; palmitic acid-treated hepatocytes): secrete SLAMF1 in the culture medium; also recorded: increases SLAMF1 both in cells and conditioned medium | SLAMF1 level normalized to Tubulin, relative to control (SLAMF 1; 0.4 mM palmitic acid): 2.3 times the control level | SLAMF1 level normalized to Tubulin, relative to control (SLAMF 1; 0.8 mM palmitic acid): 5.8 times the control level | SLAMF 1 protein levels (SLAMF 1; 0.4 and 0.8 mM palmitic acid): dose dependent increase | SLAMF 1 protein levels by immunofluorescence staining (SLAMF 1; n=4): significant increase in SLAMF1 levels | SLAMF 1 protein levels by immunofluorescence staining (SLAMF 1; n=4, listed as Palmitic acid): elevated
